Data on 19 molecules can be found in patent US9795140B2, “Molecules having pesticidal utility, and intermediates, compositions, and processes, related thereto” (priority 2015, dated 2017).

A word on the mortality: it is the percentage killed.

What all share (assay type): in vivo
Data set [1] has as its system Cabbage Looper (Trichoplusia ni, TRIPNI). In words: Bioassay on Cabbage Looper (CL), 128-well diet tray assay. Particulars: 168 h, 50 μg/cm^2 on artificial diet, second instar larvae, 25° C., five to seven days, average of eight wells, read-out: CL % Control (or Mortality) rating. A digest of the protocol:
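Second-instar T. ni larvae (one to five per well) were placed on artificial diet treated with 50 μg/cm^2 compound, applied in 90:10 acetone-water and dried. Trays were held five to seven days at 25 °C under 14:10 light-dark. Percent mortality per well was averaged over eight wells.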

The subject of data set [2] is Yellow Fever Mosquito (Aedes aegypti, AEDSAE). In words: Bioassay on Yellow Fever Mosquito (YFM) larvae, 96-well plate. Particulars: about 1 day-old larvae, room temperature, 3 days, scored on mortality. A digest of the protocol:
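Each well was scored for mortality after 3 days at room temperature under a non-evaporative lid. Test molecules came from DMSO masters (4000 ppm stock) diluted with water/acetone 90:10 and dispensed into six replicate plates, which were then infested with roughly 1-day-old larvae in liver-powder water.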

Data set [3] concerns Beet Armyworm (Spodoptera exigua, LAPHEG). The data set is described as follows: Bioassay on Beet Armyworm (BAW), 128-well diet tray assay. The conditions noted are these: 168 h, 50 μg/cm^2 on artificial diet, second instar larvae, 25° C., five to seven days, average of eight wells, read-out: BAW % Control (or Mortality) rating. A digest of the protocol: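 Percent mortality, averaged across eight replicate wells, was scored after five to seven days at 25° C. under a 14:10 light-dark cycle. Each well's diet carried 50 μg/cm^2 of the dried test molecule and held one to five second instar larvae.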

The structures appear in SMILES notation.

In the case of `COC(=O)C(CCSC)NC(=O)c1cc(NC(=O)[C@H]2[C@H](c3cc(Cl)cc(Cl)c3)C2(Cl)Cl)ccc1Cl` (relative stereo) [PF10, trans-Methyl-2-(2-chloro-5-(2,2-dichloro-3-(3,5-dichlorophenyl)cyclopropane-1-carboxamido)benzamido)-4-(methylthio)butanoate], the mortality at 50 µg/cm2 in data set [1] and in data set [3] was 50 to 100% in each case. Besides, the “YFM % Control (or Mortality) rating” value in data set [2] is recorded as “B (More than 0-Less than 80)”.
Regarding `O=C(NCCC(F)(F)C(F)(F)F)c1cc(NC(=O)[C@H]2[C@H](c3cc(Cl)cc(Cl)c3)C2(Cl)Cl)ccc1Cl` (relative stereo) [F60, trans-2-Chloro-5-(2,2-dichloro-3-(3,5-dichlorophenyl)cyclopropane-1-carboxamido)-N-(3,3,4,4,4-pentafluorobutyl)benzamide], the mortality at 50 µg/cm2 in data set [1] and in data set [3] was 50 to 100% throughout. In addition, the “YFM % Control (or Mortality) rating” value in data set [2] is recorded as “D (No activity noticed in this bioassay)”.
With `O=C(NCCF)c1cc(NC(=O)[C@H]2[C@H](c3cc(Cl)cc(Cl)c3)C2(Cl)Cl)c(Cl)cc1Cl` (relative stereo) [F99, trans-2,4-Dichloro-5-(2,2-dichloro-3-(3,5-dichlorophenyl)cyclopropane-1-carboxamido)-N-(2-fluoroethyl)benzamide], the mortality at 50 µg/cm2 in data set [1] and in data set [3] was 50 to 100% throughout. The “YFM % Control (or Mortality) rating” value in data set [2] is given as “A (80-100)”.
With `O=C(NCCC1CC1)c1cc(NC(=O)C2C(c3cc(Cl)c(Cl)c(Cl)c3)C2(Cl)Cl)ccc1Cl` (stereo not drawn) [F26, trans-N-2-Chloro-N-(2-cyclopropylethyl)-5-(2,2-dichloro-3-(3,4,5-trichlorophenyl)cyclopropane-1-carboxamido)benzamide], the mortality at 50 µg/cm2 in data set [1] and in data set [3] was 50 to 100% each time. Also, the “YFM % Control (or Mortality) rating” value in data set [2] was “A (80-100)”.
As for `O=C(NCCCl)c1cc(NC(=O)[C@H]2[C@H](c3cc(Cl)cc(Cl)c3)C2(Cl)Cl)ccc1Cl` (relative stereo) [F51, trans-2-Chloro-N-(2-chloroethyl)-5-(2,2-dichloro-3-(3,5-dichlorophenyl)cyclopropane-1-carboxamido)benzamide], the mortality at 50 µg/cm2 in data set [1] and in data set [3] was 50 to 100% each time. In data set [2], the “YFM % Control (or Mortality) rating” value is “B (More than 0-Less than 80)”.
Consider `CSCCN(C)C(=O)c1cc(NC(=O)[C@H]2[C@H](c3cc(Cl)cc(Cl)c3)C2(Cl)Cl)ccc1Cl` (relative stereo) [F68, trans-2-Chloro-5-(2,2-dichloro-3-(3,5-dichlorophenyl)cyclopropane-1-carboxamido)-N-methyl-N-(2-(methylthio)ethyl)benzamide], for which the mortality at 50 µg/cm2 in data set [1] and in data set [3] was 50 to 100% each time. Further, the “YFM % Control (or Mortality) rating” value in data set [2] is “D (No activity noticed in this bioassay)”.
As for `O=C(NCCc1csc2ccccc12)c1cc(NC(=O)[C@H]2[C@H](c3cc(Cl)cc(Cl)c3)C2(Cl)Cl)ccc1Cl` (relative stereo) [PF15, trans-N-(2-(Benzo[b]thiophen-3-yl)ethyl)-2-chloro-5-(2,2-dichloro-3-(3,5-dichlorophenyl)cyclopropane-1-carboxamido)benzamide], the mortality at 50 µg/cm2 in data set [1] and in data set [3] was 50 to 100% throughout. In addition, the “YFM % Control (or Mortality) rating” value in data set [2] is reported as “A (80-100)”.
As to `O=C(NCC(F)(F)F)c1cc(NC(=O)[C@H]2[C@H](c3ccc(Br)c(F)c3)C2(Cl)Cl)ccc1Cl` (relative stereo) [F113, 5-(trans-3-(4-Bromo-3-fluorophenyl)-2,2-dichlorocyclopropane-1-carboxamido)-2-chloro-N-(2,2,2-trifluoroethyl)benzamide], the mortality at 50 µg/cm2 in data set [1] and in data set [3] was 50 to 100% throughout. Moreover, the “YFM % Control (or Mortality) rating” value in data set [2] is given as “A (80-100)”.
As to `CCNC(=O)c1cc(NC(=O)[C@H]2[C@H](c3ccc(F)c(Cl)c3)C2(Cl)Cl)ccc1Cl` (relative stereo) [F103, trans-2-Chloro-5-(2,2-dichloro-3-(3-chloro-4-fluorophenyl)cyclopropane-1-carboxamido)-N-ethylbenzamide], the mortality at 50 µg/cm2 in data set [1] and in data set [3] was 50 to 100% in each case. Besides, the “YFM % Control (or Mortality) rating” value in data set [2] is reported as “A (80-100)”.
Consider `O=C(NCC(F)(F)F)c1cc(NC(=O)[C@H]2[C@H](c3cc(F)cc(C(F)(F)F)c3)C2(Cl)Cl)ccc1Cl` (relative stereo) [F122, 2-Chloro-5-(trans-2,2-dichloro-3-(3-fluoro-5-(trifluoromethyl)phenyl)cyclopropane-1-carboxamido)-N-(2,2,2-trifluoroethyl)benzamide], for which the mortality at 50 µg/cm2 in data set [1] and in data set [3] was 50 to 100% in each case. The “YFM % Control (or Mortality) rating” value in data set [2] was “A (80-100)”.
Take `O=C(NCCCC(F)(F)F)c1cc(NC(=O)[C@H]2[C@H](c3cc(Cl)cc(Cl)c3)C2(Cl)Cl)ccc1Cl` (relative stereo) [F72, trans-2-Chloro-5-(2,2-dichloro-3-(3,5-dichlorophenyl)cyclopropane-1-carboxamido)-N-(4,4,4-trifluorobutyl)benzamide]: the mortality at 50 µg/cm2 in data set [1] and in data set [3] was 50 to 100% each time. Further, the “YFM % Control (or Mortality) rating” value in data set [2] is recorded as “A (80-100)”.
For `O=C(NCC(F)(F)F)c1cc(NC(=O)[C@H]2[C@H](c3ccc(Br)c(C(F)(F)F)c3)C2(Cl)Cl)ccc1Cl` (relative stereo) [F115, 5-(trans-3-(4-Bromo-3-(trifluoromethyl)phenyl)-2,2-dichlorocyclopropane-1-carboxamido)-2-chloro-N-(2,2,2-trifluoroethyl)benzamide], the mortality at 50 µg/cm2 in data set [1] and in data set [3] was 50 to 100% throughout. For the same molecule, the “YFM % Control (or Mortality) rating” value in data set [2] was “A (80-100)”.
As for `COc1c(F)cc(C2C(C(=O)Nc3ccc(Cl)c(C(=O)NCC(F)(F)F)c3)C2(Cl)Cl)cc1F` (stereo not drawn) [F125, 2-Chloro-5-trans-(2,2-dichloro-3-(3,5-difluoro-4-methoxyphenyl)cyclopropane-1-carboxamido)-N-(2,2,2-trifluoroethyl)benzamide], the mortality at 50 µg/cm2 in data set [1] and in data set [3] was 50 to 100% in each case. For the same molecule, the “YFM % Control (or Mortality) rating” value in data set [2] was “A (80-100)”.
As for `O=C(NCC(F)(F)F)c1cc(NC(=O)[C@H]2[C@H](c3cc(F)cc(Br)c3)C2(Cl)Cl)ccc1Cl` (relative stereo) [F123, 5-(trans-3-(3-Bromo-5-fluorophenyl)-2,2-dichlorocyclopropane-1-carboxamido)-2-chloro-N-(2,2,2-trifluoroethyl)benzamide], the mortality at 50 µg/cm2 in data set [1] and in data set [3] was 50 to 100% in each case. In addition, the “YFM % Control (or Mortality) rating” value in data set [2] is reported as “A (80-100)”.
Turning to `CCCNC(=O)c1cc(NC(=O)[C@H]2[C@H](c3cc(Cl)cc(Cl)c3)C2(Cl)Cl)c(Cl)cc1Cl` (relative stereo) [F101, trans-2,4-Dichloro-5-(2,2-dichloro-3-(3,5-dichlorophenyl)cyclopropane-1-carboxamido)-N-propylbenzamide], the mortality at 50 µg/cm2 in data set [1] and in data set [3] was 0% throughout. Also, the “YFM % Control (or Mortality) rating” value in data set [2] was “D (No activity noticed in this bioassay)”.
For the molecule `O=C(NCC(F)(F)F)c1cc(NC(=O)[C@H]2[C@H](c3ccc(F)c(Cl)c3)C2(Cl)Cl)ccc1Cl` (relative stereo) [F105, trans-2-Chloro-5-(2,2-dichloro-3-(3-chloro-4-fluorophenyl)cyclopropane-1-carboxamido)-N-(2,2,2-trifluoroethyl)benzamide], the mortality at 50 µg/cm2 in data set [1] and in data set [3] was 50 to 100% throughout. Moreover, in data set [2], the “YFM % Control (or Mortality) rating” value is “A (80-100)”.
As to `O=C(NCCCCl)c1cc(NC(=O)[C@H]2[C@H](c3cc(Cl)cc(Cl)c3)C2(Cl)Cl)ccc1Cl` (relative stereo) [F57, trans-2-Chloro-N-(3-chloropropyl)-5-(2,2-dichloro-3-(3,5-dichlorophenyl)cyclopropane-1-carboxamido)benzamide], the mortality at 50 µg/cm2 in data set [1] and in data set [3] was 50 to 100% in each case. Moreover, in data set [2], the “YFM % Control (or Mortality) rating” value is “D (No activity noticed in this bioassay)”.
In the case of `O=C(NCC(F)(F)F)c1cc(NC(=O)[C@H]2[C@H](c3ccc(F)c(C(F)F)c3)C2(Cl)Cl)ccc1Cl` (relative stereo) [F131, 2-Chloro-5-(trans-2,2-dichloro-3-(3-(difluoromethyl)-4-fluorophenyl)cyclopropane-1-carboxamido)-N-(2,2,2-trifluoroethyl)benzamide], the mortality at 50 µg/cm2 in data set [1] and in data set [3] was 50 to 100% each time. The “YFM % Control (or Mortality) rating” value in data set [2] is “A (80-100)”.
Regarding `COCCNC(=O)c1cc(NC(=O)[C@H]2[C@H](c3cc(Cl)cc(Cl)c3)C2(Cl)Cl)ccc1Cl` (relative stereo) [F53, trans-2-Chloro-5-(2,2-dichloro-3-(3,5-dichlorophenyl)cyclopropane-1-carboxamido)-N-(2-methoxyethyl)benzamide], the mortality at 50 µg/cm2 in data set [1] and in data set [3] was 50 to 100% each time. Further, the “YFM % Control (or Mortality) rating” value in data set [2] is given as “B (More than 0-Less than 80)”.
